Publication PMC5362750, “Discovery of Potent, Selective, and Orally Bioavailable Small-Molecule Modulators of the Mediator Complex-Associated Kinases CDK8 and CDK19” (Journal of Medicinal Chemistry, 2016)
≈ marks a conversion by molar mass, not a printed value. Where two headings read alike, the source gives them in different places.

Legend:
[1] = Caco-2 Papp determination; details: human, Caco-2, pH 7.4
[2] = human
In vivo mouse PK = details: female, NMRI, plasma
[3] = system: WNT-dependent signaling, 7dF3 cells (HEK293); assay: 7dF3 luciferase reporter assay; type: cell-based, human
[4] = Thermodynamic solubility determination; type: physicochemical
[5] = Mouse Clint determination; type: in vitro ADME
Experimental: (§1) Mouse, Rat, and Human Clint Determination
(§2) Microsomes (final concentration 0.5 mg/mL), 50 mM phosphate buffer pH 7.4, and compound (final concentration 1 μM) were added to the assay plate and allowed to preincubate for 5 min at 37 °C. The reaction was initiated by the addition of NADPH (final concentration 1.5 mM), and the plate was shaken at 800 rpm at 37 °C. After 0, 5, 10, 20, and 30 min aliquots were taken and the reaction was stopped using cold acetonitrile. The samples were centrifuged at 4000 rpm for 30 min at 4 °C and analyzed by LC–MS/MS. Four test compounds were pooled for analysis. The in vitro intrinsic clearance was calculated from the rate of compound disappearance.

[6] = Human Clint determination; type: in vitro ADME; details: pH 7.4; human microsomes
Experimental: as §1, §2

[7] = Kinetic solubility determination; details: phosphate buffer, pH 7.4, Solubility Kinetic, free base
Rat Clint determination = type: in vitro ADME; details: pH 7.4; rat microsomes

In the case of `Cn1cc(-c2ccc(-c3cncc(Cl)c3N3CCC4(CCNC4=O)CC3)cc2)cn1` [Compound 6], the Papp A→B at 2 h, 1 μM [1] is reported as 23.7 ×10⁻⁶ cm/s, the “clearance prediction, iviv from hepatocytes” value (human) is reported as 8.83 mL/min/kg and the “clearance prediction, simple allometry” value (human) is reported as 24.2 mL/min/kg. For the same compound, the F (human prediction) was “∼70%”, the Vd (human prediction) was “∼0.85 L/kg” and the t1/2 (human prediction) was “∼0.70 h”. For the same compound, the Cl (human prediction, mean of all methods) was “∼0.88 L/h/kg” and the clearance [2] was 14.7 mL/min/kg.

Work on `O=C1NCCC12CCN(c1c(Cl)cncc1-c1ccc3c(c1)CS(=O)(=O)N3)CC2` [Compound 22] yielded a Papp A→B at 2 h, 1 μM [1] of 4.9 ×10⁻⁶ cm/s, a Vd (In vivo mouse PK; iv, 0.2 mg/kg) of 1.19 L/kg and a clearance (In vivo mouse PK; iv, 0.2 mg/kg, Cl, 0.2 mg/kg iv) of 84 mL/min/kg. For the same compound, the bioavailability (In vivo mouse PK; po, 0.5 mg/kg) was 11%, the “drop in cell-based potency” value ([3]; 7dF3, compared to 6) was 23 fold and the “improvement of thermodynamic aqueous solubility” value ([4]; compared to 6) was 120 fold. It also gave a solubility at 24 h ([4]; phosphate buffer, pH 7.4, TFA salt, pH 7.4, 37 °C, read-out: Solubility Therm.) of 759 µg/mL.

With `CC1=NNC(=O)C12CCN(c1c(Cl)cncc1-c1ccc3c(c1)CS(=O)(=O)N3C)CC2` [Compound 49] the Papp A→B at 2 h, 1 μM [1] was 40 ×10⁻⁶ cm/s, the efflux ratio at 2 h, 1 μM [1] was 4.9 and the “improvement in potency in the 7dF3 assay” value ([3]; compared to 23) was 13 fold.

With `Nc1ncc(-c2ccc3c(N)n[nH]c3c2)c(N2CCC3(CCNC3=O)CC2)c1Cl` [Compound 87] the Papp A→B at 2 h, 1 μM [1] was 1.3 ×10⁻⁶ cm/s and the “more stable in mouse Clint experiments” value ([5]; compared to 25) was “at least 5 fold”.

Compound `CC(C)n1ncc2ccc(-c3cnc(N)c(Cl)c3N3CCC4(CCNC4=O)CC3)cc21` [Compound 111] has a microsomal CLint at 1 μM [6] of 202 µL/min/mg, a microsomal CLint at 1 μM ([5]; pH 7.4, mouse microsomes) of 202 µL/min/mg and a solubility kinetic at 120 min [7] of 126 µM (≈ 55.3 µg/mL). For the same compound, the microsomal CLint at 1 μM (Rat Clint determination) was 139 µL/min/mg.
